Assay results published in patent US5807868A, “Isoquinoline derivatives as therapeutic agents” (Knoll Aktiengesellschaft, priority 1993, dated 1998).
Structures can show the parent of a compound that is named as a salt.

Experiments:
D1 dopamine receptors = D1 dopamine receptors (Rattus norvegicus, UniProt P18901); experiment: Inhibition of tritiated SCH 23390 binding to D1 dopamine receptors, rat striatal samples; set-up: species or system rat (male Charles River CD rats); details: for Ki: rat striatum, tritiated SCH 23390, pH 7.4, 37° C., 30 minutes; for Ki for D2 / Ki for D1: ratio between the D2 and D1 Ki values, to two significant figures
Procedure: (§1) Striatal samples from the brains of male Charles River CD rats weighing between 140-250 g were homogenised in ice-cold 50 mM Tris-HCl buffer (pH 7.4 when measured at 25° C. for D1 binding assays and pH 7.7 when measured at 25° C. for D2 binding assays) and centrifuged for 10 minutes (at 21,000 g when used for D1 binding assay and 40,000 g when used for D2 binding assays). The pellet was resuspended in the same buffer, again centrifuged and the final pellet stored at -80° C. Before each test the pellet was resuspended in 50 mM Tris-HCl buffer containing 120 mM NaCl, 5 mM KCl, 2 mM CaCl2 and 1 mM MgCl2 at pH 7.4 for the D1 binding assays and at pH 7.7 with the addition of 6 mM ascorbic acid for the D2 binding assays. Aliquots of this suspension were then added to tubes containing the ligand and either the compound under test or buffer. For the D1 binding assays the ligand was tritiated SCH 23390 and the mixture was incubated at 37° C. for 30 minutes before the incubation was terminated by rapid filtration. For the D2 binding assays the ligand was tritiated (S)-sulpiride and the mixture was incubated at 4° C. for 40 minutes before the incubation was terminated by rapid filtration. Non-specific binding was determined experimentally by the addition of saturating concentrations of chloropromazine or spiroperidol for D1 and D2 receptors respectively.
(§2) The filters were washed with ice-cold Tris-HCl buffer and dried. The filters were punched out into vials containing scintillation fluid and were left for about 20 hours before being counted by scintillation spectrophotometry. Competition binding curves were produced over a range of concentrations of the compound under test and the inhibition coefficient Ki was derived from the data by use of the non-linear curve fitting computer programe EBDA (Biosoft).

D2 dopamine receptors = D2 dopamine receptors (Rattus norvegicus, UniProt P61169); experiment: Inhibition of tritiated (S)-sulpiride binding to D2 dopamine receptors, rat striatal samples; set-up: species or system rat (male Charles River CD rats); details: rat striatum, pH 7.7, 4° C., 40 minutes
Procedure: as §1, §2

Chain of D1 dopamine receptors (P18901 whole entry): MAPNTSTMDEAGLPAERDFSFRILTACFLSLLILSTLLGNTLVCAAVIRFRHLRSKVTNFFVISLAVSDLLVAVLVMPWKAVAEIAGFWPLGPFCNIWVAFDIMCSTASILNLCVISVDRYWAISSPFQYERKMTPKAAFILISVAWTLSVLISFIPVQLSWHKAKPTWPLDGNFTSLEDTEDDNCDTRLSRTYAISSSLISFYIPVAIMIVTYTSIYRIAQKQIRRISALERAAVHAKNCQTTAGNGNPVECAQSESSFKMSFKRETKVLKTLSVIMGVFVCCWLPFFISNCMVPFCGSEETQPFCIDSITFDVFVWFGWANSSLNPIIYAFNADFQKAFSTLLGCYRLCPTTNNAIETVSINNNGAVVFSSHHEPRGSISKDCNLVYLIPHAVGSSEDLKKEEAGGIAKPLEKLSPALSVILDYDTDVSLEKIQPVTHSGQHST
Chain of D2 dopamine receptors (P61169 whole entry): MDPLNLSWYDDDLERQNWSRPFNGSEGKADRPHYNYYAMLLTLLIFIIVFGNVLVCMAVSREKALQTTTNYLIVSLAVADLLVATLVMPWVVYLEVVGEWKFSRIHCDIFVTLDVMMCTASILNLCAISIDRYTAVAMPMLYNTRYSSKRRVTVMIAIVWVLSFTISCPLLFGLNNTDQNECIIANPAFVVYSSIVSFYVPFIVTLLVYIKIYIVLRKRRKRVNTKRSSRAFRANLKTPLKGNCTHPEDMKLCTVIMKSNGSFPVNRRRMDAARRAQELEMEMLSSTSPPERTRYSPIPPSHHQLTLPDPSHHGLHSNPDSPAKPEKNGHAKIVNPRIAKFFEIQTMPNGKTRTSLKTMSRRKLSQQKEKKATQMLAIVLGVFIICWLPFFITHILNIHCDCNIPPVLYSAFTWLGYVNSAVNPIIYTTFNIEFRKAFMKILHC

| Structure (SMILES) | Ki (D1 dopamine receptors) [nM] | Ki for D2 / Ki for D1 (D1 dopamine receptors) | Ki (D2 dopamine receptors) [nM] |
| --- | --- | --- | --- |
| Br.Cc1cc2c(cc1O)C(C1(c3ccsc3)CC1)N(C)CC2 (racemic) [Example 8, (±)-7-hydroxy-2,6-dimethyl-1-[1-(3-thienyl)cyclopropyl]-1,2,3,4-tetrahydroisoquinoline hydrobromide] | 5.9 | 220 | 1300 |
| Cc1cc2c(cc1O)C(C1(c3ccsc3)CC1)N(C)CC2.O=C(O)C(=O)O (single isomer, unassigned; (-)) [Example 6, (-)-7-hydroxy-2,6-dimethyl-1-[1-(3-thienyl)cyclopropyl]-1,2,3,4-tetrahydroisoquinoline oxalate] | 2.1 | 2300 | 4900 |
| Cc1cc2c(cc1O)C(C1(c3ccsc3)CC1)N(C)CC2 (single isomer, unassigned; (-)) [Example 7, (-)-7-hydroxy-2,6-dimethyl-1-[1-(3-thienyl)cyclopropyl]-1,2,3,4-tetrahydroisoquinoline hydrochloride 0.8 hydrate] | 4.2 | 2000 | 8500 |
| Cc1cc2c(cc1O)C(C1(C3C=CCCC3)CCC1)N(C)CC2.O=C(O)C(=O)O (stereo not drawn) [Example 3, 1-[1-(cyclohex-1-en-3-yl)cyclobutyl]-7-hydroxy-2,6-dimethyl-1,2,3,4-tetrahydroisoquinoline oxalate] | 77 | 120 | 9500 |
| CN1CCc2ccc(O)cc2C1C1(c2ccccn2)CCC1.O=C(O)C(=O)O (stereo not drawn) [Example 10, 7-hydroxy-2-methyl-1-[1-(2-pyridyl)cyclobutyl]-1,2,3,4-tetrahydroisoquinoline oxalate] | 160 | 44 | 7000 |

Further lines, results first:

| Ki (D1 dopamine receptors) [nM] | Ki for D2 / Ki for D1 (D1 dopamine receptors) | Ki (D2 dopamine receptors) [nM] | Structure (SMILES) |
| --- | --- | --- | --- |
| 370 | 68 | 25000 | Br.CC(C)CC1(C2c3cc(O)ccc3CCN2C)CCC1 (stereo not drawn) [Example 1, 7-hydroxy-2-methyl-1-[1-(2-methylpropyl)cyclobutyl]-1,2,3,4-tetrahydroisoquinoline hydrobromide] |
| 7.9 | 290 | 2300 | Cc1cc2c(cc1O)C(C1(CC3CCCC3)CC1)N(C)CC2 (stereo not drawn) [Example 2, 1-[1-(cyclopentylmethyl)cyclopropyl]-7-hydroxy-2,6-dimethyl-1,2,3,4-tetrahydroisoquinoline] |
| 6.7 | 28 | 190 | Cc1cc2c(cc1O)C(C1(C3CCCc4ccccc43)CC1)N(C)CC2 (stereo not drawn) [Example 4, 7-hydroxy-2,6-dimethyl-1-[1-(1,2,3,4-tetrahydronaphth-1-yl)cyclopropyl]-1,2,3,4-tetrahydroisoquinoline 1.05 hydrochloride 0.7 hydrate] |
| 32 | 94 | 3000 | Br.Cc1cc2c(cc1O)C(C1(c3cccs3)CC1)N(C)CC2 (stereo not drawn) [Example 5, 7-hydroxy-2,6-dimethyl-1-[1-(2-thienyl)cyclopropyl]-1,2,3,4-tetrahydroisoquinoline hydrobromide] |
| 40 | 220 | 8900 | Cc1cc2c(cc1O)C(C1(c3ccco3)CC1)N(C)CC2.O=C(O)/C=C\C(=O)O (stereo not drawn) [Example 9, 1-[1-(2-furyl)cyclopropyl]-7-hydroxy-2,6-dimethyl-1,2,3,4-tetrahydroisoquinoline maleate] |
| 140 | 79 | 1100 | Cc1cc2c(cc1O)C(C1(c3ccccn3)CC1)N(C)CC2 (stereo not drawn) [Example 11, 7-hydroxy-2,6-dimethyl-1-[1-(2-pyridyl)cyclopropyl]-1,2,3,4-tetrahydroisoquinoline] |
